Test system: Staphylococcus aureus (clinical isolate)
Assay: Fluorescence imaging of coated orthopaedic plates, screws and catheters implanted in a human cadaver ankle after incubation with S. aureus isolate or NaCl
Settings: implants incubated with S. aureus, imaged 24 hours after implantation, excitation 710 nm, emission 800 nm
Description: Orthopaedic plates, screws and catheters were coated with the polymer coating with compositions according to step (g). For example a polymer coating 1 g (i) was coated onto orthopaedic plates, screws and catheters in a continuous process.
First a solution of the polymer prepared in Example 1 g (i) was made by dissolving the polymer coating in water and then the plate and catheter were drawn through the solution of the polymer coating at a rate of 1 to 2 meters/second into an infrared dying oven of approximately 1 meter in length at about 100° C. The objects were completely covered indicating the application of a substantially uniform coating. This process was done according to the standard procedures in U.S. Pat. No. 7,442,205, Stents and methods for preparing stents from wires having hydrogel coating layers thereon. […]
Imaging of the objects implanted according to example 6 was performed 24 hours after implantation using an intra-operative clinical multispectral fluorescence camera (T3-imaging system, SurgOptix BV, Groningen, The Netherlands) and the IVIS Spectrum (excitation: 710 nm, emission: 800 nm, acquisition time 5 s, binning 4, F-stop 2, FOV 21.2).
The results obtained from the IVIS Spectrum and IVIS Lumina II were analyzed with Living Image 4.2. […] Signal intensity was determined by drawing regions of interests (ROI's) and measuring average counts in these regions. […]

CC1(C)C(=CC=C2CCCC(C=CC3=[N+](CCCCCC(=O)[O-])c4ccc(S(=O)(=O)[O-])cc4C3(C)C)=C2Oc2ccc(S(=O)(=O)[O-])cc2)N(CCCCS(=O)(=O)[O-])c2ccc(S(=O)(=O)[O-])cc21.[Na+].[Na+].[Na+].[Na+] [IRDye 800CW]
near infrared signal (net counts, background corrected): 1×10^5±4.2×10^4 counts

Source: patent publication US20190224343A1, “CLEAVABLE COATING MATERIAL HAVING MICROBIAL FUNCTIONALITY” (ORIGINAL G B.V., priority 2012, published 2019)
